Source: paper PMC8226262, “Licarin-B Exhibits Activity Against the Toxoplasma gondii RH Strain by Damaging Mitochondria and Activating Autophagy” (Frontiers in Cell and Developmental Biology, 2021)
Values after ≈ are worked out from the molar mass of the structure shown.

Assays:
[1] = tested on: extracellular T. gondii tachyzoites; assay: Flow cytometry analysis of T. gondii survival (annexin V-PE / 7-AAD); type: cell-based, Toxoplasma gondii; details: 24 h
Procedure: Approximately 1 × 10^6 extracellular tachyzoites were incubated with licarin-B (18 or 36 μg/mL) in DMEM or with no drug as a control for 24 h, followed by centrifugation at 1,500 × g for 10 min. The samples were washed with PBS and suspended in 100 μL of binding buffer with 5 μL of annexin V-PE and 5 μL of 7-AAD dye in the dark for 20 min at 37°C. Double mixtures were acquired and analyzed by flow cytometry (BD FACSVerse, United States) ([Giovati et al., 2018]). The experiment was repeated three times.

T. gondii tachyzoites [2] = assay: Monodansylcadaverine (MDC) staining of autophagosomes; type: cell-based, Toxoplasma gondii
Procedure: For each sample, approximately 1 × 10^5 tachyzoites were treated with licarin-B (18 μg/mL) in DMEM for 4, 8, or 16 h at 37°C; licarin-B (18, 27, or 36 μg/mL) in DMEM for 8 h at 37°C; or no drug (as a control) in DMEM. Then, the samples were washed with PBS (pH 7.4), suspended in monodansylcadaverine (MDC) working solution (100 μM) at 37°C for 1 h after centrifugation, and washed twice with PBS. The tachyzoites were resuspended in 500 μL of PBS, and the fluorescence in each group was visualized by laser scanning confocal microscopy.

[3] = tested on: T. gondii tachyzoites (strain RH) in HFFs; assay: In vitro screening of anti-T. gondii activity (Giemsa staining, qPCR); type: cell-based, Toxoplasma gondii; details: 24 h
Procedure: Human foreskin fibroblasts were seeded in 6-well plates and infected with 3 × 10^4 fresh T. gondii tachyzoites. After 8 h, the natural compounds in DMEM supplemented with 1% FBS were added. Sulfadiazine and pyrimethamine were included as positive drug controls. After incubation for 24 h, the cells were washed twice with PBS, stained with Giemsa, and observed by light microscopy. In addition, total DNA was isolated from the cells using DNAiso Reagent (Takara), and a 529-bp repeat element was amplified by quantitative polymerase chain reaction (qPCR) with the following primers: Tox-F (5′-AGGAGAGATATCAGGACTGTAG-3′), Tox-R (5′-GCGTCGTCTCGTCTAGATCG-3′), and the Taqman probe Tox-TP (6-Fam CCGGCTTGGCTGCTTTTCCT BHQ1), as described in a previous study ([Zhang J.L. et al., 2019]). The inhibition rates against T. gondii proliferation for the natural compounds at concentrations with no HFF toxicity were calculated, and the inhibition rate in each treatment group was presented as the % of the control group. The experiment was repeated three times.

T. gondii tachyzoites [4] = assay: In vivo survival of acutely infected mice; design: species or system BALB/c mice; details: 30-day test period
Procedure: The therapeutic effect on acute infection was evaluated as described by Zhang; female BALB/c mice were divided into four groups consisting of 10 mice each, and each mouse was injected with 2 × 10^3 tachyzoites by intraperitoneal injection. Then, the mice were treated with licarin-B (25 or 50 mg/kg⋅bw), the positive drugs (100 mg/kg⋅bw sulfadiazine, 50 mg/kg⋅bw pyrimethamine, or 15 mg/kg⋅bw folinic acid) or PBS (as control) ([Si et al., 2018]). Positive drugs were administered by oral administration, and licarin-B was administered by intraperitoneal injection. […] The survival times of the infected mice and the number of deaths were monitored and recorded twice daily for 30 days.

[5] = tested on: T. gondii tachyzoites in HFFs; assay: Transmission electron microscopy of tachyzoites; type: cell-based, Toxoplasma gondii; details: 18 μg/mL
Procedure: For transmission electron microscopy (TEM) analysis, HFFs were seeded to confluence in T25 flasks and infected with 1.5 × 10^6 T. gondii tachyzoites for 8 h. After the addition of 18 μg/mL licarin-B, the cells were cultured for 4, 8, or 16 h, digested with TrypLE Express for 2 min, washed twice with PBS, fixed with 2.5% glutaraldehyde at 4°C for 12 h, washed with PBS to remove glutaraldehyde and post-fixed with 1% osmium acid solution for 1.5 h in the dark. The samples were then washed with PBS, dehydrated in a graded alcohol series, dehydrated in acetone and embedded in Epon. Ultrathin sections were stained with uranyl acetate and lead citrate and observed under a transmission electron microscope (Tecnai Spirit Bio-TWIN, Thermo Fisher Scientific, FEI, United States).

[6] = tested on: extracellular T. gondii tachyzoites; assay: MitoTracker Red CMXRos staining (mitochondrial membrane potential); type: cell-based, Toxoplasma gondii
Procedure: Extracellular parasites (1 × 10^5 per group) were incubated in DMEM with licarin-B (18 μg/mL) for 4, 8, or 16 h at 37°C; with licarin-B (18, 27, or 36 μg/mL) for 8 h at 37°C; or without any drug (as a control). Then, all the samples were stained with the MitoTracker Red CMXRos probe (50 nM, Invitrogen, United States) for 20 min. ([Zhang J.L. et al., 2019]). The fluorescence intensity was observed by laser confocal microscopy (ZEISS LSM-800, Jena, Germany).

T. gondii tachyzoites [7] = assay: In vivo parasite burden in tissues and blood (qPCR); design: species or system BALB/c mice; details: 50 mg/kg⋅bw, acutely infected mice
Procedure: To evaluate the therapeutic effect of licarin-B on acute infection, mice were infected intraperitoneally with 1 × 10^4 tachyzoites and then divided into three groups (six mice/group) for treatment with PBS (as a parasite control), licarin-B (50 mg/kg⋅bw), or a positive control drug, as described above ([Zhang J.L. et al., 2019]). The treatments were administered for 4 consecutive days, and then, the number of parasites in the tissue and blood samples were deduced from standard curves constructed using known numbers of tachyzoites, as previously described.

[8] = Dose safety assessment in vivo; details: mice treated with the tested doses (25 or 50 mg/kg⋅bw) for 30 days
Procedure: Dose safety assessment in vivo was performed to determine safe doses of licarin-B, as previously described.

[9] = tested on: T. gondii tachyzoite intracellular proliferation in HFFs; assay: Anti-proliferation activity of licarin-B (qPCR); type: cell-based, Toxoplasma gondii; details: 24 h
Procedure: DMEM without drugs was used as a parasite control. […] After 24 h, the cells were washed twice with PBS, and total genomic DNA from the cells was obtained as described in a previous study ([Zhang J.L. et al., 2019]). […] The results represent the means ± standard deviations (SD) from at least three independent experiments. The EC50 of licarin-B for tachyzoite growth inhibition was plotted as a function of the compound concentration via non-linear curve analysis using SPSS 19.0 software (SPSS Inc., Chicago, IL, United States). The results of the anti-invasion and anti-proliferation tests, the in vivo assays of the survival rate and parasite burden and data comparisons between the parasite control and treatment groups were statistically analyzed by one-way analysis of variance (ANOVA) using SPSS software.

[10] = tested on: T. gondii invasion of HFFs; assay: Anti-invasion assessment in vitro (qPCR); type: cell-based, Toxoplasma gondii; details: 4.5–22.5 μg/mL, 2 h of infection
Procedure: Human foreskin fibroblasts were seeded in 6-well plates and incubated with different concentrations of licarin-B (4.5, 9, 13.5, 18, or 22.5 μg/mL), sulfadiazine (0.4 μg/mL, as a positive control) or without drugs in DMEM supplemented with 1% FBS and then infected with 3 × 10^6 fresh parasites per well. The anti-invasion capability of licarin-B was determined by qPCR after 2 h of infection, as described in a previous study ([Zhang J.L. et al., 2019]). Triplicate independent experiments were performed.

[11] = tested on: extracellular T. gondii tachyzoites; assay: DAPI staining of the nucleus; type: cell-based, Toxoplasma gondii; details: 18, 27, or 36 μg/mL for 16 h
Procedure: Extracellular parasites (1 × 10^5 per group) were incubated in DMEM with licarin-B (18, 27, or 36 μg/mL) or without any drug (as a control) for 16 h at 37°C. All the samples were stained with 4′,6-diamidino-2-phenylindole (DAPI) at 37°C for 10 min, and fluorescence intensity was observed by laser confocal microscopy.

T. gondii [12] = details: ref Zhang J. et al., 2019; cited from earlier work
T. gondii [13] = tested on: T. gondii; design: method as in Zhang J. et al., 2019; details: 50 mg/kg.bw; ref Zhang J. et al., 2019; cited from earlier work

## C/C=C/c1cc(OC)c2c(c1)C(C)[C@@H](c1ccc3c(c1)OCO3)O2 (stereo partly drawn) [Licarin-B, 5-[(2S)-2,3-D\dihydro-7-methoxy-3β-methyl-5-[(E)-1-propenyl]benzofuran-2-yl]-1,3-benzodioxole]
[1]; 18 μg/mL
  T. gondii survival rate: approximately 45%
[1]; 36 μg/mL
  T. gondii survival rate: ~26%
T. gondii tachyzoites [2]; 18 μg/mL for 4, 8, or 16 h
  MDC labelling of autophagosomes: some parasites were positive for MDC
T. gondii tachyzoites [2]; 18, 27, and 36 μg/mL for 8 h
  MDC labelling of autophagosomes: autophagy was induced in T. gondii in a concentration-dependent manner
[3]; 200 μg/mL, T. gondii proliferation in HFFs
  Mean inhibition rate (% of control): 99.76 ± 5.81%
[3]; Giemsa staining, maximum concentration safe for HFFs (licarin-B 200 μg/mL)
  Parasitophorous vacuoles (PVs) in host cells: no parasitophorous vacuoles (PVs) in host cells
T. gondii tachyzoites [4]; 25 mg/kg⋅bw intraperitoneal once daily for 15 days
  Survival rate of infected mice: 60%
T. gondii tachyzoites [4]; 50 mg/kg⋅bw intraperitoneal once daily for 15 days
  Survival rate of infected mice: 90%
[5]; 4 h
  Ultrastructural changes in tachyzoites (TEM): slight mitochondrial swelling and a double membrane structure
[5]; 8 h
  Ultrastructural changes in tachyzoites (TEM): mitochondrial swelling, cristae disruption, vacuole formation, and an autophagy-like double membrane structure in the cytoplasm
[5]; 16 h
  Ultrastructural changes in tachyzoites (TEM): extensive clefts around the nucleus, nuclear membrane disappearance, and progressive degeneration of the parasites
[6]; 18 μg/mL for 4, 8, or 16 h
  Mitochondrial membrane potential (ΔΨm): decreased the ΔΨm in T. gondii in a time-dependent manner
[6]; 18, 27, or 36 μg/mL for 8 h
  Mitochondrial membrane potential (ΔΨm): the ΔΨm was reduced in a dose-dependent manner
T. gondii tachyzoites [7]
  Parasite loads in the blood and brain, liver, and spleen tissues vs parasite control: significantly (p < 0.01) reduced the parasite loads
[8]
  Clinical toxicity: no discernible clinical toxicity was observed
[9]; 4.5–45 μg/mL
  Inhibition of T. gondii tachyzoite intracellular proliferation vs control: significantly (p < 0.01) inhibited T. gondii tachyzoite intracellular proliferation in a concentration-dependent manner
[9]; intracellular proliferation in HFFs
  EC50 for T. gondii tachyzoite growth inhibition: 14.05 ± 3.96 µg/mL
[10]
  Inhibition of T. gondii invasion vs control: significantly (p < 0.01) inhibited T. gondii invasion
[11]
  DAPI staining of parasite nuclei: diffuse fluorescent signal in the parasite nuclei

## C=CCc1cc(OC)c(O[C@@H](C)[C@H](O)c2ccc(O)c(OC)c2)c(OC)c1 [myrislignan]
T. gondii [12]
  EC50, anti-T. gondii activity: 32.41 µg/mL (≈ 86.6 µM)
T. gondii [13]
  Survival rate in mice upon acute infection: 50%
